This is an account of results in patent US8461152B2, “Arylcyclohexylethers of dihydrotetraazabenzoazulenes” (Hoffmann-La Roche Inc., priority 2008, dated 2013).

The structures appear in SMILES notation. Structures can show the parent of a compound that is named as a salt.

The test deals with T1, human V1a receptor (Homo sapiens, UniProt P37288).
T1 construct: expressed in transfected cells; host or cells: HEK293 cells, transiently transfected; membrane preparation
T1 sequence (P37288 whole entry): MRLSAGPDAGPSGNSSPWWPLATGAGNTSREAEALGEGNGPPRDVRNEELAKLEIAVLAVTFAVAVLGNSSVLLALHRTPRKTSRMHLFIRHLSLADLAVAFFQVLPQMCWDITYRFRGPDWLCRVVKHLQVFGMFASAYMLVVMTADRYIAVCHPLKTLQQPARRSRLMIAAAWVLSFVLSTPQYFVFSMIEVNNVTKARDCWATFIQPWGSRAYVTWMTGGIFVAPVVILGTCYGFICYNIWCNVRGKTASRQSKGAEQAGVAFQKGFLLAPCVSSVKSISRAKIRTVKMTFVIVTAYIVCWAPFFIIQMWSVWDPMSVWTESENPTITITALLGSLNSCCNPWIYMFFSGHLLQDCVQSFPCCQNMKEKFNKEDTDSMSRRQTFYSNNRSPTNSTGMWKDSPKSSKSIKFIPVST
The test is described as follows: human V1a receptor binding studies (SPA, 3H-Vasopressin, membranes of transfected HEK293 cells). To be noted: displacement of 3H-Vasopressin, HEK293 cell membranes, 1 h at room temperature; Ki by Cheng-Prussoff equation; read-out: pKi (hV1a) (converted). On the procedure: The human V1a receptor was cloned by RT-PCR from total human liver RNA. The coding sequence was subcloned in an expression vector after sequencing to confirm the identity of the amplified sequence. […] Cell membranes were prepared from HEK293 cells transiently transfected with the expression vector and grown in 20 liter fermenters with the following protocol.
50 g of cells are resuspended in 30 ml freshly prepared ice cold Lysis buffer (50 mM HEPES, 1 mM EDTA, 10 mM magnesium dichloride adjusted to pH=7.4+complete cocktail of protease inhibitor (Roche Diagnostics)). Homogenized with Polytron for 1 min and sonicated on ice for 2×2 minutes at 80% intensity (Vibracell sonicator). The preparation is centrifuged 20 min at 500 g at 4° C., the pellet is discarded and the supernatant centrifuged 1 hour at 43'000 g at 4° C. (19'000 rpm). The pellet is resuspended in 12.5 ml Lysis buffer+12.5 ml Sucrose 20% and homogenized using a Polytron for 1-2 min. The protein concentration is determined by the Bradford method and aliquots are stored at −80° C. until use. For binding studies 60 mg Yttrium silicate SPA beads (Amersham) are mixed with an aliquot of membrane in binding buffer (50 mM Tris, 120 mM sodium chloride, 5 mM potassium chloride, 2 mM Calcium dichloride, 10 mM magnesium dichloride) for 15 minutes with mixing. 50 μl of bead/membrane mixture is then added to each well of a 96 well plate, followed by 50 μl of 4 nM 3H-Vasopressin (American Radiolabeled Chemicals). For total binding measurement 100 μl of binding buffer are added to the respective wells, for non-specific binding 100 μl of 8.4 mM cold vasopressin and for compound testing 100 μl of a serial dilution of each compound in 2% dimethyl sulfoxide. The plate is incubated 1 h at room temperature, centrifuged […] at 1000 g and counted on a Packard Top-Count. Non-specific binding counts are subtracted from each well and data is normalized to the maximum specific binding set at 100%. To calculate an IC 50 the curve is fitted using a non-linear regression model (XLfit) and the Ki is calculated using the Cheng-Prussoff equation.
(In general: Loss of bound radioactivity is the signal in a displacement assay; it reports binding, not function.)
`Cc1cccc(O[C@H]2CC[C@H](c3nnc4n3-c3ccc(Cl)cc3CNC4)CC2)c1` [Example 36, trans-8-Chloro-1-(4-m-tolyloxy-cyclohexyl)-5,6-dihydro-4H-2,3,5,10b-tetraaza-benzo[e]azulene hydrochloride]: the Ki was 7.59 nM.
Then `Cc1cccc(O[C@H]2CC[C@H](c3nnc4n3-c3ccc(Cl)cc3CN(C)C4)CC2)c1` [Example 37, trans-8-Chloro-5-methyl-1-(4-m-tolyloxy-cyclohexyl)-5,6-dihydro-4H-2,3,5,10b-tetraaza-benzo[e]azulene], with 1.7 nM; and `CC(C)(C)OC(=O)N1Cc2cc(Cl)ccc2-n2c(nnc2[C@H]2CC[C@H](Oc3cccc(C(C)(C)C)c3)CC2)C1` [Example 38, trans-1-[4-(3-tert-Butyl-phenoxy)-cyclohexyl]-8-chloro-4H,6H-2,3,5,10b-tetraaza-benzo[e]azulene-5-carboxylic acid tert-butyl ester], with 18.2 nM; and `CC(C)(C)OC(=O)N1Cc2cc(Cl)ccc2-n2c(nnc2[C@H]2CC[C@H](Oc3ccccc3F)CC2)C1` [Example 43, trans-8-Chloro-1-[4-(2-fluoro-phenoxy)-cyclohexyl]-4H,6H-2,3,5,10b-tetraaza-benzo[e]azulene-5-carboxylic acid tert-butyl ester], with 6.17 nM.
In the case of `Fc1ccccc1O[C@H]1CC[C@H](c2nnc3n2-c2ccc(Cl)cc2CNC3)CC1` [Example 44, trans-8-Chloro-1-[4-(2-fluoro-phenoxy)-cyclohexyl]-5,6-dihydro-4H-2,3,5,10b-tetraaza-benzo[e]azulene hydrochloride], the Ki was 3.39 nM.
Consider `CN1Cc2cc(Cl)ccc2-n2c(nnc2[C@H]2CC[C@H](Oc3ccccc3F)CC2)C1` [Example 45, trans-8-Chloro-1-[4-(2-fluoro-phenoxy)-cyclohexyl]-5-methyl-5,6-dihydro-4H-2,3,5,10b-tetraaza-benzo[e]azulene], for which the Ki was 3.63 nM.
The same measure for `CC(C)(C)OC(=O)N1Cc2cc(Cl)ccc2-n2c(nnc2[C@H]2CC[C@H](Oc3ccccc3C#N)CC2)C1` [Example 46, trans-8-Chloro-1-[4-(2-cyano-phenoxy)-cyclohexyl]-4H,6H-2,3,5,10b-tetraaza-benzoazulene-5-carboxylic acid tert-butyl ester]: 2.88 nM.
The same measure for `N#Cc1ccccc1O[C@H]1CC[C@H](c2nnc3n2-c2ccc(Cl)cc2CNC3)CC1` [Example 47, trans-2-[4-(8-Chloro-5,6-dihydro-4H-2,3,5,10b-tetraaza-benzo[e]azulen-1-yl)-cyclohexyloxy]-benzonitrile hydrochloride]: 1.2 nM; for `CN1Cc2cc(Cl)ccc2-n2c(nnc2[C@H]2CC[C@H](Oc3ccccc3C#N)CC2)C1` [Example 48, trans-2-[4-(8-Chloro-5-methyl-5,6-dihydro-4H-2,3,5,10b-tetraaza-benzoazulen-1-yl)-cyclohexyloxy]-benzonitrile]: 0.794 nM.
For the compound `Cc1ccccc1O[C@H]1CC[C@H](c2nnc3n2-c2ccc(Cl)cc2CN(C(=O)OC(C)(C)C)C3)CC1` [Example 49, trans-8-Chloro-1-(4-o-tolyloxy-cyclohexyl)-4H,6H-2,3,5,10b-tetraaza-benzoazulene-5-carboxylic acid tert-butyl ester], the Ki is 7.08 nM.
The same measure for `Cc1ccccc1O[C@H]1CC[C@H](c2nnc3n2-c2ccc(Cl)cc2CN(C)C3)CC1` [Example 51, trans-8-Chloro-5-methyl-1-(4-o-tolyloxy-cyclohexyl)-5,6-dihydro-4H-2,3,5,10b-tetraaza-benzoazulene]: 3.72 nM.
Turning to `CC(C)(C)OC(=O)N1Cc2cc(Cl)ccc2-n2c(nnc2[C@H]2CC[C@H](Oc3cc(F)cc(F)c3)CC2)C1` [Example 52, trans-8-Chloro-1-[4-(3,5-difluoro-phenoxy)-cyclohexyl]-4H,6H-2,3,5,10b-tetraaza-benzoazulene-5-carboxylic acid tert-butyl ester], the Ki is 3.47 nM.
In the case of `CN1Cc2cc(Cl)ccc2-n2c(nnc2[C@H]2CC[C@H](Oc3cc(F)cc(F)c3)CC2)C1` [Example 54, trans-8-Chloro-1-[4-(3,5-difluoro-phenoxy)-cyclohexyl]-5-methyl-5,6-dihydro-4H-2,3,5,10b-tetraaza-benzoazulene], the Ki was 3.89 nM.
The same measure for `CC(C)(C)OC(=O)N1Cc2cc(Cl)ccc2-n2c(nnc2[C@H]2CC[C@H](Oc3ccc4ccccc4c3)CC2)C1` [Example 55, trans-8-Chloro-1-[4-(naphthalen-2-yloxy)-cyclohexyl]-4H,6H-2,3,5,10b-tetraaza-benzoazulene-5-carboxylic acid tert-butyl ester]: 9.33 nM.
The same measure for `CN1Cc2cc(Cl)ccc2-n2c(nnc2[C@H]2CC[C@H](Oc3ccc4ccccc4c3)CC2)C1` [Example 57, trans-8-Chloro-5-methyl-1-[4-(naphthalen-2-yloxy)-cyclohexyl]-5,6-dihydro-4H-2,3,5,10b-tetraaza-benzoazulene]: 5.75 nM; for `CC(C)(C)OC(=O)N1Cc2cc(Cl)ccc2-n2c(nnc2[C@H]2CC[C@H](Oc3cccnc3)CC2)C1` [Example 61, trans-8-Chloro-1-[4-(pyridin-3-yloxy)-cyclohexyl]-4H,6H-2,3,5,10b-tetraaza-benzoazulene-5-carboxylic acid tert-butyl ester]: 1.51 nM; for `CN1Cc2cc(Cl)ccc2-n2c(nnc2[C@H]2CC[C@H](Oc3cccnc3)CC2)C1` [Example 63, trans-8-Chloro-5-methyl-1-[4-(pyridin-3-yloxy)-cyclohexyl]-5,6-dihydro-4H-2,3,5,10b-tetraaza-benzoazulene]: 4.57 nM.
For the compound `CC(C)(C)OC(=O)N1Cc2cc(Cl)ccc2-n2c(nnc2[C@H]2CC[C@H](Oc3cncc(Cl)c3)CC2)C1` [Example 64, trans-8-Chloro-1-[4-(5-chloro-pyridin-3-yloxy)-cyclohexyl]-4H,6H-2,3,5,10b-tetraaza-benzoazulene-5-carboxylic acid tert-butyl ester], the Ki is 9.55 nM.
For `CN1Cc2cc(Cl)ccc2-n2c(nnc2[C@H]2CC[C@H](Oc3cncc(Cl)c3)CC2)C1` [Example 66, trans-8-Chloro-1-[4-(5-chloro-pyridin-3-yloxy)-cyclohexyl]-5-methyl-5,6-dihydro-4H-2,3,5,10b-tetraaza-benzoazulene], the Ki is 9.12 nM.
Then `CC(C)(C)OC(=O)N1Cc2cc(Cl)ccc2-n2c(nnc2[C@H]2CC[C@H](Oc3ccccn3)CC2)C1` [Example 67, trans-8-Chloro-1-[4-(pyridin-2-yloxy)-cyclohexyl]-4H,6H-2,3,5,10b-tetraaza-benzoazulene-5-carboxylic acid tert-butyl ester], with 3.31 nM; and `Clc1ccc2c(c1)CNCc1nnc([C@H]3CC[C@H](Oc4ccccn4)CC3)n1-2` [Example 68, trans-8-Chloro-1-[4-(pyridin-2-yloxy)-cyclohexyl]-5,6-dihydro-4H-2,3,5,10b-tetraaza-benzoazulene hydrochloride], with 6.17 nM; and `CN1Cc2cc(Cl)ccc2-n2c(nnc2[C@H]2CC[C@H](Oc3ccccn3)CC2)C1` [Example 69, trans-8-Chloro-5-methyl-1-[4-(pyridin-2-yloxy)-cyclohexyl]-5,6-dihydro-4H-2,3,5,10b-tetraaza-benzoazulene], with 1.1 nM.
Then `CC(C)(C)OC(=O)N1Cc2cc(Cl)ccc2-n2c(nnc2[C@H]2CC[C@H](Oc3cccc(Cl)n3)CC2)C1` [Example 70, trans-8-Chloro-1-[4-(6-chloro-pyridin-2-yloxy)-cyclohexyl]-4H,6H-2,3,5,10b-tetraaza-benzo[e]azulene-5-carboxylic acid tert-butyl ester], with 9.12 nM; and `CN1Cc2cc(Cl)ccc2-n2c(nnc2[C@H]2CC[C@H](Oc3cccc(Cl)n3)CC2)C1` [Example 72, trans-8-Chloro-1-[4-(6-chloro-pyridin-2-yloxy)-cyclohexyl]-5-methyl-5,6-dihydro-4H-2,3,5,10b-tetraaza-benzo[e]azulene], with 2.4 nM.
On to `Clc1ccc(O[C@H]2CC[C@H](c3nnc4n3-c3ccc(Cl)cc3CNC4)CC2)nc1` [Example 74, trans-8-Chloro-1-[4-(5-chloro-pyridin-2-yloxy)-cyclohexyl]-5,6-dihydro-4H-2,3,5,10b-tetraaza-benzo[e]azulene hydrochloride], for which the Ki is 11.2 nM.
For the compound `CN1Cc2cc(Cl)ccc2-n2c(nnc2[C@H]2CC[C@H](Oc3ccc(Cl)cn3)CC2)C1` [Example 75, trans-8-Chloro-1-[4-(5-chloro-pyridin-2-yloxy)-cyclohexyl]-5-methyl-5,6-dihydro-4H-2,3,5,10b-tetraaza-benzo[e]azulene], the Ki was 2.82 nM.
